Measurements: patent publication EP0309566B1, “STLV-III-RELATED POLYPEPTIDES, DIAGNOSTIC SYSTEMS AND ASSAY METHODS” (JOHNSON AND JOHNSON, priority 1987, dated 1994)

Columns and labels:
24 sera = assay: Comparison of peptide p80 based and peptide p81 based ELISA, 24 sera; assay type: binding; conditions: for Ratio p80:p81: absorbance value ratio
Source text: The absorbance values obtained for each of 24 sera in a peptide p80 based ELISA were divided by those obtained in a peptide p81 based ELISA. The resulting absorbance value ratios are shown in ranked order in Table 14.

antibodies to HIV-2 = assay: Specificity ELISA (Example 12, Figure 3), HIV-2 antibody positive sera; assay type: binding, human; conditions: 20 sera containing antibodies to HIV-2 but not to HIV-1 TMP gp41 (West Africans); positive O.D. above 0.150
antibodies against HIV-1 = assay: Specificity ELISA (Example 12, Figure 3), HIV-1 antibody positive sera; assay type: binding, human; conditions: 20 sera with antibodies against HIV-1; positive O.D. above 0.150
Source text: In the Figures forming a portion of the disclosure of this invention: • Figure 1 illustrates a portion of the STLV-IIImac TMP amino acid residue sequence. The sequence is shown from left to right and in the direction of amino-terminus to carboxy-terminus in a single-letter code. The residue positions have been numbered as illustrated from 1-33. • Figure 2 illustrates, in a manner similar to Figure 1, a portion of the amino acid residue sequence of the HIV-1 TMP and represent gp41 amino acid residues […] as described in Ratner et al., Nature, 313:277-283 (1985). However, for ease of discussion, those residue positions have been renumbered as illustrated from 1-32. • Figure 3 contains 2 panels illustrating antibody determinations using a diagnostic system of this invention to assay (a) 20 sera from individuals in Guinea-Bissau previously determined to have antibodies against HIV-related viruses (West Africans), (b) 20 sera from HIV-1-infected individuals and (c) 20 sera from blood donors without antibodies to HIV-1 or HIV-2. Sera were considered positive (closed symbols) when they produced optical density (O.D.) values above 0.150 (the mean O.D. of negative samples plus 6 standard deviations). Negative sera are represented by open symbols. […]

antibodies against HIV-2 = assay: ELISA with STLV-III polypeptides p80 and p81, alone and in combination; assay type: binding, human; conditions: two sera containing high titers of antibodies against HIV-2, diluted 1:10; 490nm
Procedure: Preliminary studies using two sera containing high titers of antibodies against HIV-2 were performed by ELISA using each of p80 and p81 alone and in combination. One hundred microliters (ul) of 0.01M NaHCO₃, pH 9.6, containing 1 microgram (ug) of either p80 or p81 or a combination (admixture) of 1 ug of p80 and 1 ug of p81 were admixed into the wells of Immunolon II microtiter plates (Dynatech, Alexandria, VA). The plates were then maintained for about 16 hours at 4 degrees C to permit the polypeptides to adsorb onto (coat) the walls of the wells. After removing the polypeptide coating solution by shaking, 300 ul of PBS containing 1% bovine serum albumin (BSA), 5mM benzamidine, 10 kilounits Aprotinin, 10ug/ml Trypsin Inhibitor, 10mM EACA, 0.5mM PMSF, 2mM EDTA and 10% glycerol were admixed into each well to block excess protein binding sites. […]
Two hundred ul of OPD substrate were then admixed into each well to form a developing-reaction admixture. After maintaining the developing-reaction admixture for 30 minutes at about 20 degrees C, 50 ul of 4N H₂SO₄ were admixed into each well to stop the developing-reaction, and the resulting solutions were assayed for absorbance at 490nm using a microtiter plate reader.

**Q.** What does the source list for AIEKYLEDQAQLNAWCAFRQVC [p80]?
**A.** absorbance value (24 sera; Serum No. 3541): 0.181; Ratio p80:p81 (24 sera; Serum No. 3541): 7.240; absorbance value (24 sera; Serum No. 3616): 0.686; Ratio p80:p81 (24 sera; Serum No. 3616): 14.600; absorbance value (24 sera; Serum No. 3743): 0.257; Ratio p80:p81 (24 sera; Serum No. 3743): 6.425; absorbance value (24 sera; Serum No. 3923): 0.180; Ratio p80:p81 (24 sera; Serum No. 3923): 2.687; absorbance value (24 sera; Serum No. 3942): 0.588; Ratio p80:p81 (24 sera; Serum No. 3942): 11.530; absorbance value (24 sera; Serum No. 5160): 0.251; Ratio p80:p81 (24 sera; Serum No. 5160): 1.064; absorbance value (24 sera; Serum No. 5182): 0.162; Ratio p80:p81 (24 sera; Serum No. 5182): 1.588; absorbance value (24 sera; Serum No. 5727): 0.504; Ratio p80:p81 (24 sera; Serum No. 5727): 0.895; absorbance value (24 sera; Serum No. 5740): 2.000; Ratio p80:p81 (24 sera; Serum No. 5740): 46.510; absorbance value (24 sera; Serum No. 6598): 0.072; Ratio p80:p81 (24 sera; Serum No. 6598): 0.351; absorbance value (24 sera; Serum No. 6599): 0.206; Ratio p80:p81 (24 sera; Serum No. 6599): 0.888; absorbance value (24 sera; Serum No. 6600): 0.359; Ratio p80:p81 (24 sera; Serum No. 6600): 1.173; absorbance value (24 sera; Serum No. 6601): 0.353; Ratio p80:p81 (24 sera; Serum No. 6601): 2.558; absorbance value (24 sera; Serum No. 6602): 0.516; Ratio p80:p81 (24 sera; Serum No. 6602): 516.000; absorbance value (24 sera; Serum No. 6603): 1.152; Ratio p80:p81 (24 sera; Serum No. 6603): 2.736; absorbance value (24 sera; Serum No. 6604): 1.808; Ratio p80:p81 (24 sera; Serum No. 6604): 4.520; absorbance value (24 sera; Serum No. 6631): 0.153; Ratio p80:p81 (24 sera; Serum No. 6631): 0.537; absorbance value (24 sera; Serum No. 6650): 0.700; Ratio p80:p81 (24 sera; Serum No. 6650): 20.590; absorbance value (24 sera; Serum No. 6661): 0.647; Ratio p80:p81 (24 sera; Serum No. 6661): 4.044; absorbance value (24 sera; Serum No. 6665): 0.254; Ratio p80:p81 (24 sera; Serum No. 6665): 4.792; absorbance value (24 sera; Serum No. 6674): 2.000; Ratio p80:p81 (24 sera; Serum No. 6674): 7.752; absorbance value (24 sera; Serum No. 6683): 0.387; Ratio p80:p81 (24 sera; Serum No. 6683): 0.791; absorbance value (24 sera; Serum No. 6698): 2.000; Ratio p80:p81 (24 sera; Serum No. 6698): 90.910; absorbance value (24 sera; Serum No. 6877): 0.248; Ratio p80:p81 (24 sera; Serum No. 6877): 31.000; immunoreaction with sera (antibodies to HIV-2): pronounced reactions; immunoreaction with sera (antibodies against HIV-1): with one exception, produced no substantial immunoreaction; absorbance values (antibodies against HIV-2): greater than 1.1
